Entries after “also recorded” stand apart in the source; their conditions may differ.
Experiments:
[1] = system: general tyrosine kinase activity in A498 kidney cancer cells; assay: General tyrosine kinase activity (ELISA) in A498 cells; type: cell-based, human; details: IC50 concentration
Protocol: (§1) Takara Universal Tyrosine Kinase Assay Kit is used to determine the effects of 11 2-indolinone compounds (Y1, Y2, Y3, Y4, Y5, Y8, […], […], Y21, Y23, 20C, 22C) on general tyrosine kinase activity in cancer cells. Cells are seeded in 6-well plates (4.10^5 cells/well) and the IC50 concentration of each selected molecule is performed to the cells for 48 or 72 hours. Cells in the control group are incubated with medium only. At the end of the incubation period, the cells in each well are washed with PBS and cells are removed from the wells using a cell scraper via 1 ml of the extraction buffer in the kit. The cell lysate is transferred to ependorf tubes and centrifuged at 10.000 g for 10 minutes at +4° C. and the supernatant is used as a sample for activity determination. After the extracts obtained from the control and experimental groups are diluted 1:25, 40 μl extracts is transferred to two wells in the 96-well plate in the kit. In addition, the standard solution in the kit is diluted according to the kit instructions and each concentration is transferred 40 μl into three wells. 10 μl of 40 mM ATP-2Na solution is added to all wells and the plate is incubated at 37° C. for 30 minutes. […] The reaction is finished by adding 100 μl of stop solution to each well and the optical density in each well is measured at 405 nm with a microplate reader (BioTek, USA). The tyrosine kinase activity in each sample is calculated from the standard curve obtained from the absorbance values of the standard solutions with the kit (Chan W Y, Lau P M, Yeung K W, Kong S K. The second generation tyrosine kinase inhibitor dasatinib induced eryptosis in human erythrocytes—An in vitro study. Toxicol Lett. 2018; 295:10-21). […]
The effects of 11 2-indolinone compounds (Y1, Y2, Y3, Y4, Y5, Y8, Y14, Y21, Y23, 20C and 22C) having the structure of formula (5), which are prominent with their cytotoxicity in A498, MIAPaCa-2 and HCT-116 cancer cell lines and nontoxic properties in healthy cells, on general tyrosine kinase activity in cancer cells are determined.

A498 cells = assay: Apoptosis/necrosis detection, Annexin V/PI flow cytometry, A498; type: cell-based, human
Protocol: After incubation with 2-indolinone compounds (IC50 μM concentration; 48 and/or 72 hours), cells are washed twice with PBS and the cell pellet is suspended in Annexin V binding buffer. After this incubation, cells are incubated with FITC-conjugated Annexin V and propidium iodine staining solution for 15 minutes in the dark and at room temperature. Then, cells are analyzed by flow cytometry (Beckman coulter, Navios) (Wlodkowic, D., Skommer, J, Darzynkiewicz, Z. 2009. Flow cytometry-based apoptosis detection, Methods Mol Biol., 559, 1-14).

[2] = system: general tyrosine kinase activity in HCT116 colon cancer cells; assay: General tyrosine kinase activity (ELISA) in HCT-116 cells; type: cell-based, human; details: 72 hours, IC50 concentration
Protocol: as §1, with “determination.” for “determination. After the extracts obtained from the control and experimental groups are diluted 1:25, 40 μl extracts is transferred to two wells in the 96-well plate in the kit. In addition, the standard solution in the kit is diluted according to the kit instructions and each concentration is transferred 40 μl into three wells. 10 μl of 40 mM ATP-2Na solution is added to all wells and the plate is incubated at 37° C. for 30 minutes.”

human cancer cells = assay: MTT cell viability, human cancer cells overall; type: cell-based; details: cell line as discussed at the place
Text: The cytotoxicity, general tyrosine kinase inhibitory effects and cell death (apoptosis/necrosis) assays of 1-benzyl-3-(1H-indol-3-ylmethylidene)-1,3-dihydro-2H-indol-2-one derivatives (Formula 5) of the present invention are studied by the following methods. […] HUVEC (human umbilical vein endothelial cell), MCF-10F (human breast epithelial cell) and Beas2b (human lung bronchial epithelial cell) cell lines have been used as healthy control cells in MTT experiments.
Beas2b (human lung bronchiole epithelial cell) and HEK293 (renal tubule epithelium) cells used as normal cell lines were cultured in RPMI medium, and HUVEC (human umbilical cord endothelial cells) and MCF-10F (human breast epithelial cell) cells are cultured in DMEM medium containing 100 µg/ml penicillin/streptomycin. The cells, which covered 70% of the culture flask, are washed with phosphate buffer and then removed from the surface of the flask by application of trypsin-ethylenediamine tetraacetic acid (Trypsin-EDTA; 0.25%) solution, passaged, counted and seeded on appropriate plates before each experiment. Cells are treated with a total of 45 2-indolinone compounds (5) at concentrations of 0.1, 1, 5 and 10 μM. Stock compounds are prepared in 1 ml dimethylsulfoxide (DMSO) and 4 different dilutions were prepared with medium and performed to the cells. Control group cells are treated with DMSO at a similar concentration to the experimental groups.
MTT (3-(4,5-dimethylthiazol-2-yl)-2,5-diphenyl-2H-tetrazolium bromide) colorimetric assay provides quantitation of viable cells with ongoing mitochondrial activity in culture medium. According to the standard procedure in cell culture conditions, cells are maintained in RPMI-1640 and DMEM culture media containing 10% FBS and 1% penicillin/streptomycin. The trypan blue test is used for cell counts.
The effects of 45 2-indolinone compounds (5) on cell viability in all cancer cell lines are investigated by MTT assay. Cells are seeded in a 96-well flat bottom plate with 5000 cells in each well and 2-indolinone compounds (5) at concentrations of 0.1, 1, 5 and 10 μM are performed to the cells the next day. After 48 and/or 72 hours following treatment with 2-indolinone compounds, 50 μl of the supernatant is slowly discarded (as it was acid medium) and MTT at a concentration of 5 mg/ml is added to each well in a volume of 10 μl. After incubation for 4 hours, the formazan crystals formed in the wells are dissolved by adding 100 μl DMSO and the optical density is read at 570 nm test wavelength and 630 nm reference wavelength. Cell viability is expressed as % cell viability by comparing the absorbance of control and test wells. IC50 value is calculated from the dose-response curves prepared for each compound. In addition, the possible DMSO effect is eliminated by preparing negative control wells compatible with the amount of DMSO contained in the compounds. To understand the reaction of the compounds with MTT, cell-free (MTT+compounds) negative controls are prepared at the concentrations used (Mosmann, 1983). […] The absorbance values obtained are compared to the control and statistically evaluated by unpaired t-test using “Graphpad Prism 5.04” software. “P<0.05” is accepted as significant. When evaluating cytotoxic effects, the present inventors aim for the inventive compounds to be effective in cancer cells and ineffective in healthy cells. […]

Cc1ccc2c(c1)/C(=C/c1c[nH]c3ccccc13)C(=O)N2Cc1cccc(F)c1 [Y8]
general tyrosine kinase activity compared to control ([1]; 72 h): did not cause a significant change

Cc1ccc2c(c1)/C(=C/c1c[nH]c3ccccc13)C(=O)N2Cc1ccccc1 [Y3]
general tyrosine kinase activity compared to control ([1]; 48 h): significantly decreased; also recorded: decreased the general tyrosine kinase activity | necrosis compared to control (A498 cells; A498): no increase or decrease; also recorded: did not cause necrosis | Apoptosis rate compared to control (A498 cells; A498, IC50 concentration): increased significantly

O=C1/C(=C\c2c[nH]c3ccccc23)c2cc(OC(F)(F)F)ccc2N1Cc1ccccc1 [Y4]
tyrosine kinase activity compared to control [2]: did not cause a significant change | potency/selectivity compared with sunitinib malate (human cancer cells): more potent than Sunitinib malate
